{
  "source": "patent US20090028943A1",
  "about": "“PHARMACEUTICAL COMPOSITIONS” (priority 2005, published 2009)",
  "key": {"range of models": {"tested_on": "range of models", "conditions": "once-daily oral administration; cited from earlier work"}, "[1]": {"assay": "stability of AZD2171 (hydrolysis, oxidation)", "format": "physicochemical", "description": "In order to counteract the plasticity of a drug such as AZD2171 a person skilled in the art would typically try to modify the material's properties with the addition of a complementary excipient such as a brittle filler. However this can limit the drug loading that can be achieved in a formulation, i.e. the percentage of active ingredient therein, and can lead to very large tablets which are difficult to swallow. […] Initial test formulations of AZD2171 were therefore limited to the use of two […] fillers namely lactose and mannitol. The test formulations comprised: […]"}, "Calu-6 tumour xenograft": {"tested_on": "Calu-6 tumour xenograft", "assay": "in vivo solid tumour model", "conditions": "once-daily oral, 28 days"}, "[2]": {"tested_on": "VEGF-stimulated endothelial cell proliferation (HUVEC)", "assay": "HUVEC assay, VEGF-stimulated proliferation", "format": "cell-based", "conditions": "Homo sapiens"}, "[3]": {"tested_on": "basal endothelial cell proliferation (HUVEC)", "assay": "HUVEC assay, basal proliferation", "format": "cell-based", "conditions": "Homo sapiens"}},
  "data": [
    {"compound": "COc1cc2c(Oc3ccc4[nH]c(C)cc4c3F)ncnc2cc1OCCCN1CCCC1", "note": "[AZD2171, 4-(4-fluoro-2-methyl-1H-indol-5-yloxy)-6-methoxy-7-(3-(pyrrolidin-1-yl)propoxy)quinazoline]", "values": [
      {"measurement": "anti-tumour activity in a range of models", "setting": "range of models", "result": "broad-spectrum anti-tumour activity"},
      {"measurement": "compatibility with brittle filler dibasic calcium phosphate dihydrate", "setting": "[1]", "result": "showed hydrolysis"},
      {"measurement": "stability", "setting": "[1]; degradation by hydrolysis and oxidation", "result": "relatively poor stability"},
      {"measurement": "inhibition of growth of Calu-6 tumour xenograft", "setting": "Calu-6 tumour xenograft; 1.5 mg/kg/day", "result": 49, "unit": "%"},
      {"measurement": "inhibition of growth of Calu-6 tumour xenograft", "setting": "Calu-6 tumour xenograft; 3 mg/kg/day", "result": 69, "unit": "%"},
      {"measurement": "inhibition of growth of Calu-6 tumour xenograft", "setting": "Calu-6 tumour xenograft; 6 mg/kg/day", "result": 91, "unit": "%"},
      {"measurement": "IC50", "setting": "[2]", "result": "0.4 ± 0.2", "unit": "nM"},
      {"measurement": "IC50", "setting": "[3]", "result": "> 500", "unit": "nM"}
    ]}
  ]
}
